# In ChEMBL document CHEMBL5321213, “Nicolaioidesin C: An Antiausterity Agent Shows Promising Antitumor Activity in a Pancreatic Cancer Xenograft Mouse Model” (J Nat Prod, 2023):
# Calls of active or inactive are those of the source. The rule behind the calls is not given here.
# How the values were obtained:
# MIA PaCa-2 [1] = test: Preferential cytotoxicity against human MIA PaCa-2 cells in nutrient-deprived medium measured after 24 hrs by WST-8 cell counting analysis; type: functional
# MIA PaCa-2 [2] = test: Antitumor activity against human MIA PaCa-2 cells xenografted in athymic BALB/c-nu mouse assessed as fold change in 4-(methylthio)-2-oxobutyric acid level in tumor at 2 mg/kg/day, ip administered five times per week for 4 weeks by LC-MS analysis; type: functional
# MIA PaCa-2 [3] = test: Antitumor activity against human MIA PaCa-2 cells xenografted in athymic BALB/c-nu mouse assessed as fold change in leucine level in tumor at 10 mg/kg/day, ip administered five times per week for 4 weeks by LC-MS analysis; type: functional
# MIA PaCa-2 [4] = test: Antitumor activity against human MIA PaCa-2 cells xenografted in athymic BALB/c-nu mouse assessed as fold change in cytidine 5'-monophosphate level in tumor at 10 mg/kg/day, ip administered five times per week for 4 weeks by LC-MS analysis; type: functional
# MIA PaCa-2 [5] = test: Antitumor activity against human MIA PaCa-2 cells xenografted in athymic BALB/c-nu mouse assessed as fold change in sphinganine level in tumor at 2 mg/kg/day, ip administered five times per week for 4 weeks by LC-MS analysis; type: functional
# MIA PaCa-2 [6] = test: Antitumor activity against human MIA PaCa-2 cells xenografted in athymic BALB/c-nu mouse assessed as fold change in cytidine diphosphate ethanolamine level in tumor at 10 mg/kg/day, ip administered five times per week for 4 weeks by LC-MS analysis; type: functional
# PANC-1 [7] = test: Preferential cytotoxicity against human PANC-1 cells in nutrient-deprived medium assessed as alteration in cell morphology by measuring cell rounding at 5 uM measured after 24 hrs by acridine orange and ethidium bromide dual fluorescent staining based imaging analysis; type: functional
# MIA PaCa-2 [8] = test: Antitumor activity against human MIA PaCa-2 cells xenografted in athymic BALB/c-nu mouse assessed as reduction in p-Akt level in tumor at 2 to 10 mg/kg/day, ip administered five times per week for 4 weeks by immunohistochemistry analysis; type: functional, organism-based; conditions: dose 2-10 mg/kg/day
# MIA PaCa-2 [9] = test: Antitumor activity against human MIA PaCa-2 cells xenografted in athymic BALB/c-nu mouse assessed as fold change in tyrosine level in tumor at 10 mg/kg/day, ip administered five times per week for 4 weeks by LC-MS analysis; type: functional
# PANC-1 [10] = test: Antimetastatic activity in human PANC-1 cells in DMEM media assessed as inhibition of colony formation at 20 uM incubated for 24 hrs followed by replacement with fresh medium and measured after 10 days by crystal violet staining-based assay relative to control; type: functional
# MIA PaCa-2 [11] = test: Antitumor activity against human MIA PaCa-2 cells xenografted in athymic BALB/c-nu mouse assessed as reduction in mTOR phosphorylation at S2481 residue in tumor at 10 mg/kg/day, ip administered five times per week for 4 weeks by Western blot analysis; type: functional, organism-based
# MIA PaCa-2 [12] = test: Inhibition of Akt/mTOR signaling pathway in human MIA PaCa-2 cells in DMEM media assessed as reduction in mTOR phosphorylation at S2481 residue at 5 to 20 uM measured after 6 hrs by Western blot analysis; type: cell-based; conditions: dose 5-20 µM
# MIA PaCa-2 [13] = test: Antitumor activity against human MIA PaCa-2 cells xenografted in athymic BALB/c-nu mouse assessed as fold change in lysine level in tumor at 10 mg/kg/day, ip administered five times per week for 4 weeks by LC-MS analysis; type: functional
# [14] = Toxicity in athymic BALB/c-nu mouse xenografted with human MIA PaCa-2 cells assessed as body weight loss at 2 to 10 mg/kg/day, ip administered five times per week for 4 weeks; type: organism-based; conditions: in vivo, 672 h, dose 2-10 mg/kg/day
# PANC-1 [15] = test: Inhibition of autophagy in human PANC-1 cells in nutrient-deprived medium assessed as downregulation of LC3-II protein expression measured after 6 hrs by Western blot analysis; type: functional, cell-based; conditions: dose 5-20 µM
# MIA PaCa-2 [16] = test: Antitumor activity against human MIA PaCa-2 cells xenografted in athymic BALB/c-nu mouse assessed as fold change in desthiobiotin level in tumor at 2 mg/kg/day, ip administered five times per week for 4 weeks by LC-MS analysis; type: functional
# MIA PaCa-2 [17] = test: Antitumor activity against human MIA PaCa-2 cells xenografted in athymic BALB/c-nu mouse assessed as fold change in methionine level in tumor at 2 mg/kg/day, ip administered five times per week for 4 weeks by LC-MS analysis; type: functional
# MIA PaCa-2 [18] = test: Antimetastatic activity in human MIA PaCa-2 cells in DMEM media assessed as inhibition of colony formation at 20 uM incubated for 24 hrs followed by replacement with fresh medium and measured after 10 days by crystal violet staining-based assay relative to control; type: functional
# MIA PaCa-2 [19] = test: Antitumor activity against human MIA PaCa-2 cells xenografted in athymic BALB/c-nu mouse assessed as fold change in cytosine level in tumor at 2 mg/kg/day, ip administered five times per week for 4 weeks by LC-MS analysis; type: functional
# PANC-1 [20] = test: Preferential cytotoxicity against human PANC-1 cells in nutrient-deprived medium measured after 24 hrs by WST-8 cell counting analysis; type: functional
# MIA PaCa-2 [21] = test: Antitumor activity against human MIA PaCa-2 cells xenografted in athymic BALB/c-nu mouse assessed as fold change in N-acetyl-L-glutamicacid level in tumor at 10 mg/kg/day, ip administered five times per week for 4 weeks by LC-MS analysis; type: functional
# MIA PaCa-2 [22] = test: Antimetastatic activity in human MIA PaCa-2 cells in nutrient-rich medium assessed as open wound area at 20 uM measured every 15 mins for 24 hrs by live cell imaging analysis (reference value: 62%); type: functional
# MIA PaCa-2 [23] = test: Antitumor activity against human MIA PaCa-2 cells xenografted in athymic BALB/c-nu mouse assessed as fold change in 2'-deoxycytidine level in tumor at 10 mg/kg/day, ip administered five times per week for 4 weeks by LC-MS analysis; type: functional
# MIA PaCa-2 [24] = test: Antitumor activity against human MIA PaCa-2 cells xenografted in athymic BALB/c-nu mouse assessed as fold change in cytidine level in tumor at 10 mg/kg/day, ip administered five times per week for 4 weeks by LC-MS analysis; type: functional
# MIA PaCa-2 [25] = test: Antimetastatic activity in human MIA PaCa-2 cells in DMEM media assessed as inhibition of colony formation at 40 uM incubated for 24 hrs followed by replacement with fresh medium and measured after 10 days by crystal violet staining-based assay relative to control; type: functional
# MIA PaCa-2 [26] = test: Antitumor activity against human MIA PaCa-2 cells xenografted in athymic BALB/c-nu mouse assessed as fold change in 4-(methylthio)-2-oxobutyricacid level in tumor at 10 mg/kg/day, ip administered five times per week for 4 weeks by LC-MS analysis; type: functional
# MIA PaCa-2 [27] = test: Antitumor activity against human MIA PaCa-2 cells xenografted in athymic BALB/c-nu mouse assessed as fold change in D-ribulose 5-phosphate level in tumor at 2 mg/kg/day, ip administered five times per week for 4 weeks by LC-MS analysis; type: functional
# MIA PaCa-2 [28] = test: Antitumor activity against human MIA PaCa-2 cells xenografted in athymic BALB/c-nu mouse assessed as fold change in D-ribulose5-phosphate level in tumor at 10 mg/kg/day, ip administered five times per week for 4 weeks by LC-MS analysis; type: functional
smiles,measurement,setting,value
COc1cc(O)c(C(=O)[C@@H]2CC=C(CCC=C(C)C)C[C@H]2c2ccccc2)c(O)c1,PC50,MIA PaCa-2 [1],2.9 µM
same,fold change (FC),MIA PaCa-2 [2],0.48
same,fold change (FC),MIA PaCa-2 [3],0.41
same,fold change (FC),MIA PaCa-2 [4],0.31
same,fold change (FC),MIA PaCa-2 [5],1.87
same,fold change (FC),MIA PaCa-2 [6],0.16
same,Activity,PANC-1 [7],Active
same,Activity,MIA PaCa-2 [8],Active
same,fold change (FC),MIA PaCa-2 [9],0.43
same,inhibition at 20 µM,PANC-1 [10],82%
same,Activity,MIA PaCa-2 [11],Active
same,inhibition,MIA PaCa-2 [12],inactive
same,fold change (FC),MIA PaCa-2 [13],0.29
same,Activity,[14],Non-Toxic
same,inhibition,PANC-1 [15],Dose-Dependent Effect
same,fold change (FC),MIA PaCa-2 [16],0.63
same,fold change (FC),MIA PaCa-2 [17],0.44
same,inhibition at 20 µM,MIA PaCa-2 [18],95%
same,fold change (FC),MIA PaCa-2 [19],0.73
same,PC50,PANC-1 [20],3.4 µM
same,fold change (FC),MIA PaCa-2 [21],0.28
same,Activity,MIA PaCa-2 [22],87%
same,fold change (FC),MIA PaCa-2 [23],0.31
same,fold change (FC),MIA PaCa-2 [24],0.35
same,inhibition at 40 µM,MIA PaCa-2 [25],99%
same,fold change (FC),MIA PaCa-2 [26],0.41
same,fold change (FC),MIA PaCa-2 [27],0.22
same,fold change (FC),MIA PaCa-2 [28],0.22
